Test results: ChEMBL document CHEMBL1201862, “PubChem BioAssay data set” (2004)
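Briefly, cells in 96-well plates were exposed to five compound concentrations for 48 h, and endpoints were estimated by linear interpolation. GI50 marks 50% less growth.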 The source made the active and inactive calls. No stated cut-off is given here; in the data, active = GI50 up to about 1.1 µM and inactive = higher.

How the values were obtained:
Test in all cases: NCI tumour cell line growth inhibition, 48 h
786-0 = test system: 786-0
COLO 205 = test system: COLO 205
DU-145 = test system: DU-145
HCT-15 = test system: HCT-15
IGROV-1 = test system: IGROV-1
M14 = test system: M14
MDA-MB-231 = test system: MDA-MB-231
MDA-MB-435 = test system: MDA-MB-435
MDA-N = test system: MDA-N
NCI-H226 = test system: NCI-H226
NCI/ADR-RES = test system: NCI/ADR-RES
OVCAR-3 = test system: OVCAR-3
OVCAR-5 = test system: OVCAR-5
SF-295 = test system: SF-295
SK-MEL-5 = test system: SK-MEL-5
SR = test system: SR
SW-620 = test system: SW-620
UACC-62 = test system: UACC-62
UO-31 = test system: UO-31
RPMI-8226 = test system: RPMI-8226

Structure (SMILES)	GI50 (786-0)	GI50 (COLO 205)	GI50 (DU-145)	GI50 (HCT-15)	GI50 (IGROV-1)	GI50 (M14)	GI50 (MDA-MB-231)	GI50 (MDA-MB-435)	GI50 (MDA-N)	GI50 (NCI-H226)	GI50 (NCI/ADR-RES)	GI50 (OVCAR-3)	GI50 (OVCAR-5)	GI50 (SF-295)	GI50 (SK-MEL-5)	GI50 (SR)	GI50 (SW-620)	GI50 (UACC-62)	GI50 (UO-31)	GI50 (RPMI-8226)
COC12CCCN1c1ccn(Cc3ccccc3)c(=O)c1C2=O (stereo not given)	> 100 µM (inactive)	> 100 µM (inactive)	> 100 µM (inactive)	> 100 µM	> 100 µM (inactive)	> 100 µM (inactive)	> 100 µM (inactive)	> 100 µM (inactive)	> 100 µM (inactive)	> 100 µM (inactive)	> 100 µM (inactive)	> 100 µM (inactive)	> 100 µM (inactive)	> 100 µM (inactive)	> 100 µM (inactive)	> 100 µM (inactive)	> 100 µM (inactive)	> 100 µM (inactive)	> 100 µM (inactive)	
O=C(OCCC12CC3CC(CC(C3)C1)C2)c1ccc(NCc2cc(O)ccc2O)cc1	1.28 µM (inactive)	0.34 µM (active)	3.3 µM (inactive)	0.611 µM	0.0547 µM (active)	1.24 µM (inactive)	1.88 µM (inactive)	1.26 µM (inactive)	1.36 µM (inactive)	2.92 µM (inactive)	0.687 µM (active)	0.239 µM (active)		2.02 µM (inactive)	1.12 µM (inactive)	0.404 µM (active)	1.63 µM (inactive)	1.61 µM (inactive)	0.376 µM (active)	0.172 µM (active)
COc1ccc(/C=C2\CN(C)C/C(=C\c3ccc(OC)c(OC)c3OC)C2=O)c(OC)c1OC	0.0887 µM (active)	0.238 µM (active)	0.333 µM (active)	0.369 µM	0.311 µM (active)	0.073 µM (active)	0.282 µM (active)	0.0199 µM (active)	0.0968 µM (active)	0.394 µM (active)	0.145 µM (active)	0.11 µM (active)	0.232 µM (active)	0.272 µM (active)	0.259 µM (active)	0.0658 µM (active)	0.155 µM (active)	0.2 µM (active)		0.0292 µM (active)
CC(C)(C)Cc1cc(O)ccc1O	63.5 µM (inactive)	> 100 µM (inactive)	> 100 µM (inactive)	34.7 µM	> 100 µM (inactive)	46.2 µM (inactive)	42.2 µM (inactive)	39.1 µM (inactive)	43.2 µM (inactive)	> 100 µM (inactive)	35.6 µM (inactive)	39.3 µM (inactive)	> 100 µM (inactive)	44 µM (inactive)		24 µM (inactive)	61.9 µM (inactive)	> 100 µM (inactive)	> 100 µM (inactive)	
COCCCN1C(=O)C2c3[nH]c4ccccc4c3C3CCC(C(C)(C)C)CC3C2C1=O (stereo not given)	22.7 µM (inactive)	> 10 µM (inactive)	58.9 µM (inactive)	19.8 µM	> 100 µM (inactive)	18.4 µM (inactive)	21.7 µM (inactive)	29.7 µM (inactive)	35.6 µM (inactive)	25.4 µM (inactive)	> 10 µM (inactive)	17.4 µM (inactive)		24.1 µM (inactive)	27.4 µM (inactive)	25.4 µM (inactive)	30.6 µM (inactive)	> 10 µM (inactive)	54.3 µM (inactive)	22.6 µM (inactive)
COc1ccc(C(=O)C(CC2C(=O)CC(C)(C)C(C(=O)C(=O)Nc3c(C)cccc3C)C2=O)c2ccc(OC)cc2)cc1 (stereo not given)	> 100 µM (inactive)	> 100 µM (inactive)	> 100 µM (inactive)	> 100 µM	> 100 µM (inactive)	> 100 µM (inactive)	> 100 µM (inactive)	> 100 µM (inactive)	> 100 µM (inactive)	> 100 µM (inactive)	> 100 µM (inactive)	> 100 µM (inactive)	> 100 µM (inactive)	> 100 µM (inactive)	> 100 µM (inactive)	22.9 µM (inactive)	> 100 µM (inactive)	> 100 µM (inactive)	70.1 µM (inactive)	
O=C1NC(N2CCOCC2)=N/C1=C\c1ccc(Cl)cc1	> 100 µM (inactive)	> 100 µM (inactive)	> 100 µM (inactive)	> 100 µM	> 100 µM (inactive)	> 100 µM (inactive)	> 100 µM (inactive)	> 100 µM (inactive)	> 100 µM (inactive)	> 100 µM (inactive)	> 100 µM (inactive)	> 100 µM (inactive)	> 100 µM (inactive)	> 100 µM (inactive)		> 100 µM (inactive)	> 100 µM (inactive)	> 100 µM (inactive)	> 100 µM (inactive)	> 100 µM (inactive)
COc1cc(/C=C/C=C2\CCC/C(=C\C=C\c3ccc(O)c(OC)c3)C2=O)ccc1O	10 µM (inactive)	18.6 µM (inactive)	14.7 µM (inactive)	13.6 µM	6.7 µM (inactive)	18.2 µM (inactive)	39.1 µM (inactive)	9.57 µM (inactive)	3.91 µM (inactive)		12.2 µM (inactive)	9.12 µM (inactive)	22 µM (inactive)	4.74 µM (inactive)	10.3 µM (inactive)	1.69 µM (inactive)	6.84 µM (inactive)	7.55 µM (inactive)	12 µM (inactive)	5.4 µM (inactive)
Cc1ccc2c(c1C)C(=O)/C(=C/c1cccc(C)c1C(=O)O)C2	> 100 µM (inactive)	> 100 µM (inactive)	> 100 µM (inactive)	51.3 µM	> 86.7 µM (inactive)	63.2 µM (inactive)	> 62.7 µM (inactive)	52.7 µM (inactive)	> 80.5 µM (inactive)	43.1 µM (inactive)	59.8 µM (inactive)	71.6 µM (inactive)	> 100 µM (inactive)	> 100 µM (inactive)	38.9 µM (inactive)	> 60.5 µM (inactive)		56 µM (inactive)	2.2 µM (inactive)	71.3 µM (inactive)
O=c1c2ccccc2nc(-c2cccc([N+](=O)[O-])c2)n1O	42.9 µM (inactive)	31.3 µM (inactive)	> 100 µM (inactive)	17.8 µM	22.8 µM (inactive)	50.8 µM (inactive)	17.5 µM (inactive)	41.5 µM (inactive)	43.4 µM (inactive)	23.7 µM (inactive)	23.3 µM (inactive)	31.6 µM (inactive)	66.7 µM (inactive)	40.1 µM (inactive)	32.7 µM (inactive)	> 100 µM (inactive)	35.3 µM (inactive)	33.5 µM (inactive)	33.7 µM (inactive)	
O=C1NC(=O)C(c2c[nH]c3cc(Br)ccc23)=C1c1cnc[nH]1	50 µM (inactive)	15.6 µM (inactive)	60.5 µM (inactive)	54.5 µM	28.4 µM (inactive)	51.6 µM (inactive)	27.9 µM (inactive)	25.1 µM (inactive)	35.5 µM (inactive)	1.47 µM (inactive)	> 100 µM (inactive)	12.3 µM (inactive)	> 100 µM (inactive)	16.3 µM (inactive)	11 µM (inactive)	31.3 µM (inactive)	55.8 µM (inactive)		17.7 µM (inactive)	30.8 µM (inactive)
CN1CCN(Cc2ccccc2)CC1CC#N (stereo not given)	> 100 µM (inactive)	> 100 µM (inactive)	> 100 µM (inactive)	> 100 µM	> 100 µM (inactive)		> 100 µM (inactive)	> 100 µM (inactive)	> 100 µM (inactive)	> 100 µM (inactive)	> 100 µM (inactive)	> 100 µM (inactive)	> 100 µM (inactive)	> 100 µM (inactive)	> 100 µM (inactive)	> 100 µM (inactive)	> 100 µM (inactive)	> 100 µM (inactive)	> 100 µM (inactive)	> 100 µM (inactive)
Cc1oc2c(cc(O)c3ccccc32)c2cccc1-2	> 100 µM (inactive)	> 100 µM (inactive)	36.1 µM (inactive)	99.5 µM		24.1 µM (inactive)	14.3 µM (inactive)	> 100 µM (inactive)	> 100 µM (inactive)		> 100 µM (inactive)	> 100 µM (inactive)	> 100 µM (inactive)	> 100 µM (inactive)	> 100 µM (inactive)	> 100 µM (inactive)	> 100 µM (inactive)			> 100 µM (inactive)
CC(=O)OC1CC[C@]2(C)C3CC[C@@]4(C)C(CCC4[C@H](C)CCCC(C)C)[C@@H]3CCC2(Br)C1 (stereo not given in full)	8.49 µM (inactive)	9.62 µM (inactive)	> 50 µM (inactive)	15.1 µM	11.9 µM (inactive)	18.5 µM (inactive)	13.7 µM (inactive)	8.83 µM (inactive)	20.1 µM (inactive)	> 50 µM (inactive)	41 µM (inactive)	14.5 µM (inactive)	24.2 µM (inactive)	34.8 µM (inactive)		9.44 µM (inactive)	9.42 µM (inactive)	21 µM (inactive)	14 µM (inactive)	
Oc1c(CN2CCN(c3ccccc3)CC2)cc(Br)c2cccnc12	1.4 µM (inactive)	29.6 µM (inactive)	1.63 µM (inactive)	0.135 µM	0.834 µM (active)	1.14 µM (inactive)	2.33 µM (inactive)	1.46 µM (inactive)	0.855 µM (active)		0.206 µM (active)	0.423 µM (active)	4.07 µM (inactive)	1.21 µM (inactive)	0.805 µM (active)	0.284 µM (active)	1.4 µM (inactive)	1.01 µM (active)	0.393 µM (active)	0.361 µM (active)
